Median survival data for one substance are collected here from PMC10077475, “DG9-conjugated morpholino rescues phenotype in SMA mice by reaching the CNS via a subcutaneous administration” (JCI Insight, 2023).

The test system of the assay is severe SMA mouse model (Taiwanese model). Nature of the assay: Survival of severe SMA mice after a single subcutaneous injection at PD0. The class given is in vivo. The conditions noted are these: single subcutaneous injection at PD0, 40 mg/kg, until humane endpoint. On the procedure:
To examine whether DG9 peptide can increase the efficacy of PMO, we conjugated it to an 18-mer PMO with a sequence identical to nusinersen. The DG9-PMO, unconjugated PMO, and MOE were injected into SMA model mice [Cg-Tg(SMN2)2HungSmn1^tm1Hung/J; abbreviated as Smn^–/– SMN2^Tg/Tg; commonly called the Taiwanese model]. We also used an arginine-rich peptide (R6G) that is currently being explored in clinical trials for Duchenne muscular dystrophy (DMD) and used in preclinical studies for Hutchinson-Gilford progeria syndrome ([37], [38]). The benchmark control peptide R6G was conjugated to the same PMO sequence used in our study (R6G-PMO). […] We subcutaneously injected mice with the AOs or saline (nontreated, NT) administered at postnatal day 0 (PD0) at 2 doses: 40 mg/kg or 80 mg/kg. In our preliminary experiments, we also tested lower doses of 10 and 20 mg/kg (data not shown). […] The survival was recorded until a humane endpoint was reached. For the 40 mg/kg doses, the median survival was 12 days for unconjugated PMO, 15.5 days for MOE, and 17 days for R6G-PMO, which was increased to 58 days for DG9-PMO treatment (Figure 1A and Supplemental Figure 1A; supplemental material available online with this article; https://doi.org/10.1172/jci.insight.160516DS1). The median survival increased to 57 days for unconjugated PMO, 64 days for MOE, and 121 days for DG9-PMO at the higher dose of 80 mg/kg (Figure 1A). […] In spite of no statistical difference between DG9-PMO and MOE groups, the median survival of DG9-PMO still was higher than MOE, as only 1 mouse was alive until PD200 following a 40 mg/kg injection of MOE.
SMA-transgenic mice [JAX stock 005058 FVB.Cg-Tg(SMN2)2HungSmn1^tm1Hung/J] (Smn^–/–; SMN2^Tg/Tg), also known as Taiwanese mice, were purchased from Jackson Laboratory. Heterozygous mice for Smn1 (Smn1^+/–; SMN2^–/–) generated by us were crossed with mice homozygous for Smn1 Smn^–/–; SMN2^Tg/Tg generated by us to obtain the SMA mice (Smn^–/–; SMN2^Tg/–) or the heterozygous healthy control (Smn1^+/–; SMN2^Tg/–). The SMA mice display a severe overt phenotype similar to patients with SMA type I. The mice were genotyped using a PCR assay on genomic DNA isolated from tail biopsies using the Phire Tissue Direct PCR Kit (Thermo Fisher Scientific) as per the manufacturer’s instructions. The DNA was amplified using the primers described in Supplemental Table 1 using the condition Mouse Smn: 98°C/5 minutes → 98°C/5 s 58°C/10 s 72°C/10 s × 35 cycles → 72°C/1 minute.
Injections were carried out using a 30-gauge Hamilton syringe. SMA mice identified following genotyping were randomly assigned to a treatment group. The researcher injecting mice was blinded to the treatment. SMA neonates were subcutaneously injected with 40 or 80 mg/kg of AOs at PD0, while NT and heterozygous control mice were injected with saline (n = 10–49) per group. Tissues including the quadriceps muscle, liver, kidney, spleen, diaphragm, intercostal muscle, heart, brain, and spinal cord were collected and snap-frozen in dry ice– cooled isopentane, then subsequently stored at –80°C.

On to RRRRRRG [R6G-PMO], for which the median survival was found to be 17 days.
